For 27 compounds, AC50 and EC50 results are on record in ChEMBL document CHEMBL1201862, “PubChem BioAssay data set” (2004).

Activity calls are given as the source filed them.

A short description of series [1]: Luminescence Cell-Based Dose Retest to Confirm Inhibitors of Cancer Stem Cells. [Related pubchem assays (depositor defined):AID2717, AID2721]. The note with it: Homo sapiens. The class given is functional.
A further series addresses T1, Cytochrome P450 1A2 (Homo sapiens, UniProt P05177).
T1 sequence (P05177 whole entry): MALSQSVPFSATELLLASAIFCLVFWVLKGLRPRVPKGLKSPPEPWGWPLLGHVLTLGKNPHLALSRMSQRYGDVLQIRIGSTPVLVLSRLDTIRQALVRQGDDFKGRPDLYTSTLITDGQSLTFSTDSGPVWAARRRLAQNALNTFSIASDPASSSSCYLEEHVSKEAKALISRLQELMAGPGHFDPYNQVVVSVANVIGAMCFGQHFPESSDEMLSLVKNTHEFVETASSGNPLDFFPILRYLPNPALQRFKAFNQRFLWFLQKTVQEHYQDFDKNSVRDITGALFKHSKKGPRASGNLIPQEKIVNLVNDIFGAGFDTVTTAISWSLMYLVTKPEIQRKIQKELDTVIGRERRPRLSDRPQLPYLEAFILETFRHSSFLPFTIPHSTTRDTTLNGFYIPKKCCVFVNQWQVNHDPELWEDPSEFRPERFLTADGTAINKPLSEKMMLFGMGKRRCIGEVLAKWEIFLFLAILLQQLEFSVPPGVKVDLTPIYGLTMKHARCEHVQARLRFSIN

A further series deals with Cytochrome P450 2D6 (Homo sapiens, UniProt P10635).
Series [2] in a line: Luminescence Cell-Based Dose Confirmation HTS to Identify Inhibitors of Platelet Dense Granule Release. [Related pubchem assays: 1663 (Primary HTS), 1678 (Summary of Project)]. The class given is functional.
Series [3] deals with Luciferin 4-monooxygenase (Photinus pyralis, UniProt P08659). The experiment in a line: firefly luciferase enzyme inhibitors, dose response, biochemical, luminescence (AID 1891).
The target in a further series is Cytochrome P450 2C9 (Homo sapiens, UniProt P11712).
The target in the next series is Cytochrome P450 2C19 (Homo sapiens, UniProt P33261). The experiment in a line: Cytochrome panel assay with activity outcomes. Panel member name: p450-cyp2c19 Compounds with AC50 equal or less than 10 uM are considered active. The class given is functional.
The target in the next series is Cytochrome P450 3A4 (Homo sapiens, UniProt P08684).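 Note: CYP3A4 tested as one member of a cytochrome P450 panel screen.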
Cytochrome P450 3A4, sequence (P08684 whole entry): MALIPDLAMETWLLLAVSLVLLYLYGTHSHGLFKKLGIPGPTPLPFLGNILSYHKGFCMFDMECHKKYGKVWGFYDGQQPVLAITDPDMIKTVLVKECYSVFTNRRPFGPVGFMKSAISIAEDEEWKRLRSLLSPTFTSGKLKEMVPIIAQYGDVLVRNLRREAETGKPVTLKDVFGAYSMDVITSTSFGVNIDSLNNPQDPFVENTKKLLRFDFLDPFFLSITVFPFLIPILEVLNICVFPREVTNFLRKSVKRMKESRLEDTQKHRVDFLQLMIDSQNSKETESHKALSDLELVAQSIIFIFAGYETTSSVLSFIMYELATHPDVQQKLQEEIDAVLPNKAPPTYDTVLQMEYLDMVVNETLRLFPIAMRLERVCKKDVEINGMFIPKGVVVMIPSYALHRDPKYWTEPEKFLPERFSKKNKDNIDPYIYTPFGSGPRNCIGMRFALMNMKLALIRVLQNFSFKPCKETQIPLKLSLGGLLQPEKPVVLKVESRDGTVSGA

Cytochrome P450 2C9, sequence (P11712 whole entry): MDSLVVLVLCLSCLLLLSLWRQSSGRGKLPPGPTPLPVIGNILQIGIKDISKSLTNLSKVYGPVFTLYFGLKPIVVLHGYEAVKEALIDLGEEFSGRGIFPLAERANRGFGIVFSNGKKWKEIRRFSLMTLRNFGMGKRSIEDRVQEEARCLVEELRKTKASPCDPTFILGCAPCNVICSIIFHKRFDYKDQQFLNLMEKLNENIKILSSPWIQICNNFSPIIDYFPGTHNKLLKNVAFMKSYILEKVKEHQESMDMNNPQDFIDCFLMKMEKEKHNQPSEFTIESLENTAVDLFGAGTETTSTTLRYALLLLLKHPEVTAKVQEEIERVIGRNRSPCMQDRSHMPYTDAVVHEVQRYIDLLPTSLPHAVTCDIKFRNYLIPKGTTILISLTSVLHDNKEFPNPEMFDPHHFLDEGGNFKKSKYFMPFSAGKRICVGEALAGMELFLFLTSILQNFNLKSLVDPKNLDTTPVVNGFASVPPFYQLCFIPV
Cytochrome P450 2D6, sequence (P10635 whole entry): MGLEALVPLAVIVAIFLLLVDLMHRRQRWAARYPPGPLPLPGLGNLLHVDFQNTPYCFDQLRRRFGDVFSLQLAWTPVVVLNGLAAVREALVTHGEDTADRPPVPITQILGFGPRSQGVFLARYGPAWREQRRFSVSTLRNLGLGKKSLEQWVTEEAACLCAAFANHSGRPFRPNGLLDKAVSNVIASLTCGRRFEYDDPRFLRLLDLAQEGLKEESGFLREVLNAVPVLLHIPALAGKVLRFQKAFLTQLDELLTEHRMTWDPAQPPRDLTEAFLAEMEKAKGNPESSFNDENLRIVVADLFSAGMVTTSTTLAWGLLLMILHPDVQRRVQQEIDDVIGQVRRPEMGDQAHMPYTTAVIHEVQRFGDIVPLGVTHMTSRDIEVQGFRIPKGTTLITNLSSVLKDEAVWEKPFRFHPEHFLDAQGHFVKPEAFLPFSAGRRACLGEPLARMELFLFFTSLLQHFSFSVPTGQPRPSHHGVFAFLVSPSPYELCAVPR
Cytochrome P450 2C19, sequence (P33261 whole entry): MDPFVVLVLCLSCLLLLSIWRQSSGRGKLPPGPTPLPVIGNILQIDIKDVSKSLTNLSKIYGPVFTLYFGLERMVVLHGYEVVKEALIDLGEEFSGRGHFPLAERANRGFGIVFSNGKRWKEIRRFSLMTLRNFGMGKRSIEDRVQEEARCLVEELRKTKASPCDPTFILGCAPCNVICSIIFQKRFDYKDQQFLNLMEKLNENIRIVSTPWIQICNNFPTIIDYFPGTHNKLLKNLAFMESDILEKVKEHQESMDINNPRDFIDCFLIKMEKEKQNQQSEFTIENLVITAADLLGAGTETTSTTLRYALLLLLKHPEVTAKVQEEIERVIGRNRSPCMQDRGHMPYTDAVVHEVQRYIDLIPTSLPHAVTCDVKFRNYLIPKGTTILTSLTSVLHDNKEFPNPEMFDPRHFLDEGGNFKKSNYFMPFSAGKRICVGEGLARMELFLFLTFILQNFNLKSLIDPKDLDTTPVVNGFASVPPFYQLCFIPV
Luciferin 4-monooxygenase, sequence (P08659 whole entry): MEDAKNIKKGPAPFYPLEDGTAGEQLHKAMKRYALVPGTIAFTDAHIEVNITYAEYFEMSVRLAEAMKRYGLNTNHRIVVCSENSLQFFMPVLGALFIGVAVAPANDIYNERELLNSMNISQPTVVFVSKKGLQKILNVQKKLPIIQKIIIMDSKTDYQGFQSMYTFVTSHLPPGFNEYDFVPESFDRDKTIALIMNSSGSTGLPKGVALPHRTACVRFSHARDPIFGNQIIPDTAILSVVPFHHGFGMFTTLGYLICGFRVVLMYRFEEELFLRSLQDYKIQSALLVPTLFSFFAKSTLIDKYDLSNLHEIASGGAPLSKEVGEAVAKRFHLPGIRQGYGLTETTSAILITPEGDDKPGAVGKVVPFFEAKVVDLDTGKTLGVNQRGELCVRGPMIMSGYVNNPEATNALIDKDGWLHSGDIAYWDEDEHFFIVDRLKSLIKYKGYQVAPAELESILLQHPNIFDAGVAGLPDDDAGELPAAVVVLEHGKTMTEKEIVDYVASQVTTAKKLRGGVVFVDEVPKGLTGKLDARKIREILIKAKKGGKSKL

For `O=C(c1cccc(S(=O)(=O)N2CCc3ccccc3C2)c1)N1CCN(c2ccc(O)cc2)CC1`, in series [1], the AC50 (usually the midpoint of the concentration-response curve, whichever way the signal moves) is 4.51 µM (active). In the case of `COc1ccc(-c2nc3cnc(N(C)C)nc3n(CCc3ccccc3)c2=O)cc1`, at Cytochrome P450 1A2, the AC50 was 1.26 µM (inconclusive).

For the compound `CCN(CC)CCNC(=O)COc1ccc(OC)cc1` [MEFEXAMIDE], the AC50 on Cytochrome P450 2D6 and on Cytochrome P450 1A2 was 12.6 µM (inconclusive) throughout. In the case of `Cc1cccc(N(C)C(=O)c2cc3c(O)nc4ccc(C)cc4c3s2)c1`, the AC50 in series [1] was 0.394 µM (active). For the same compound, the EC50 (usually the concentration needed to bring the measured effect to its halfway point) is 70.7 µM (active) in series [2] and > 112 µM (not active) in series [3].

For the compound `O=C(O)c1cc2cc(Cl)ccc2oc1=O`, the results for the AC50 at Cytochrome P450 1A2 and on Cytochrome P450 2C9 were 0.0251 µM (inconclusive) and 0.00562 µM (inconclusive), respectively. As for `COc1cc2c(cc1OC)CN(CC(=O)Nc1ccc3c(c1)OCO3)CC2`, the values for the AC50 at Cytochrome P450 1A2, at Cytochrome P450 2C9 and at Cytochrome P450 2C19 (read-out: AC50) were 20 µM (inconclusive), 14.1 µM (inconclusive) and 22.4 µM (inconclusive), respectively.

For `CCN(Cc1cc(Cl)cc(C)c1O)Cc1c(O)ccc2ccccc12`, the AC50 on Cytochrome P450 1A2 was 1 µM (inconclusive); on Cytochrome P450 2C9, 5.01 µM (inconclusive). Regarding `N[C@@H](CCCCP(=O)(O)O)C(=O)O`, the AC50 at Cytochrome P450 1A2 was 31.6 µM (inconclusive).

Consider `Cc1ccc(Cn2nnc3c(O)nc(C4CCCN(C(=O)Nc5ccc(F)cc5F)C4)nc32)cc1` (stereo unspecified), for which the AC50 at Cytochrome P450 2D6 is 25.1 µM (inconclusive); on Cytochrome P450 1A2, 31.6 µM (inconclusive); at Cytochrome P450 2C9 it was 22.4 µM (inconclusive); at Cytochrome P450 2C19 (read-out: AC50), 39.8 µM (inconclusive). In the case of `Cc1ccccc1C(=N)c1ccccc1Cc1cccc2ccccc12`, on Cytochrome P450 3A4, the AC50 is 1.58 µM (inconclusive). Still for that read-out and setting: next, `O=C(c1coc2ccccc2c1=O)N1CCN(c2cccc(C(F)(F)F)c2)CC1`: 22.4 µM (inconclusive). For the compound `CC(=O)COc1ccc2c(C)c(C)c(=O)oc2c1`, on Cytochrome P450 2C19 (read-out: AC50), the AC50 was 0.178 µM (inconclusive). On to `O=[N+]([O-])c1cc([As](=O)(O)O)ccc1O` [ROXARSONE], for which the AC50 entry on Cytochrome P450 2C19 is given as “inconclusive”. In the case of `Cc1ccc(Nc2ncccc2C(=O)NCc2cccs2)c(C)c1`, the AC50 at Cytochrome P450 2D6 is 25.1 µM (inconclusive); on Cytochrome P450 2C19 (read-out: AC50), 7.08 µM (inconclusive). For `O=C(c1ccccc1F)c1cn(CC(=O)N2CCOCC2)c2ccccc12`, at Cytochrome P450 3A4, the AC50 was 17.8 µM (inconclusive). As to `Cc1ccc(S(=O)(=O)Nc2ccc3c(c2)CC(=O)N([C@H](C)CO)C[C@@H](C)[C@H](CN(C)Cc2ccc(-c4ccccc4)cc2)O3)cc1`, in series [1], the half-maximal activity concentration (AC50) is 3.9 µM (active).

`N#CCCn1c(=O)c(-c2ccc(F)cc2)nc2cnc(N3CCOCC3)nc21`: at Cytochrome P450 1A2, the AC50 was 20 µM (inconclusive). In the case of `CC(OC(=O)c1cccs1)C(=O)NC1CCCCC1C` (stereo unspecified), the AC50 in series [1] is > 195 µM (inactive). Still for that read-out and setting: the same measure for `Cc1cc(C)cc(C(=O)Nc2nnc(SCC(=O)N3CCCc4ccccc43)s2)c1`: 4.46 µM (active). As for `CN(N=O)c1cc(O)ccc1O` [DEPHOSTATIN], the AC50 on Cytochrome P450 2D6 is 31.6 µM (inconclusive); on Cytochrome P450 1A2, 31.6 µM (inconclusive); on Cytochrome P450 2C9 it was 10 µM (inconclusive); at Cytochrome P450 2C19 (read-out: AC50), 25.1 µM (inconclusive). As to `COc1ccccc1CN1CC2(CCN(C(=O)c3ccncc3)CC2)C1`, the AC50 on Cytochrome P450 3A4 is 7.94 µM (inconclusive). As to `COc1cccc(-c2sc3ccccc3c2-c2ccc(OCCN3CCOCC3)cc2)c1`, the AC50 in series [1] was 2.32 µM (active). On to `CS(=O)(=O)N1CCC2(CC1)CN(Cc1nccs1)C2`, for which the AC50 at Cytochrome P450 1A2 was 6.31 µM (inconclusive).

Take `Cn1c(=O)c2c(nc(N3CCN(c4ccccn4)CC3)n2Cc2ccc(Cl)cc2Cl)n(C)c1=O`: at Cytochrome P450 3A4, the AC50 is 2.24 µM (inconclusive). `CCOC(=O)CCCNC(=O)c1cncc(Br)c1`: the AC50 on Cytochrome P450 2C19 (read-out: AC50) is 39.8 µM (inconclusive). On to `Cc1ccc(-c2nc(C[S+]([O-])CC(=O)NCc3ccc4c(c3)OCO4)c(C)o2)cc1` (stereo unspecified), for which the AC50 in series [1] is > 195 µM (inactive).

In the case of `N[C@@]1(C(=O)O)CN[C@H](C(=O)O)C1`, the AC50 at Cytochrome P450 1A2 was 31.6 µM (inconclusive).
